According to patent US20250268474A1, “Systems and Methods for Detecting Fibrosis” (3HELIX, INC., priority 2021, published 2025):
Where no end group is shown, it is not given here. [ ]: non-standard residue; d: D form. Pro(cis-4-F) = O=C(O)[C@@H]1C[C@H](F)CN1; Hyp = O=C(O)[C@@H]1C[C@@H](O)CN1

System: damaged/denatured collagen
Experiment: LCHP in vivo imaging (fundus / ICG angiography) in CNV mice
Conditions: spontaneous CNV (JR5558), FIG. 6A; 1 nmol per animal, tail vein

sulfo-Cy7.5-GGG-OfGGOfGfGfOfOGOfGOOfGGOOff ({sulfo‑Cy7.5}-GGG[Hyp][Pro(cis-4-F)]GG[Hyp][Pro(cis-4-F)]G[Pro(cis-4-F)]G[Pro(cis-4-F)][Hyp][Pro(cis-4-F)][Hyp]G[Hyp][Pro(cis-4-F)]G[Hyp][Hyp][Pro(cis-4-F)]GG[Hyp][Hyp][Pro(cis-4-F)][Pro(cis-4-F)]; not fully specified; printed as sulfo-Cy7.5-GGG-OfGGOfGfGfOfOGOfGOOfGGOOff) [scrambled sCy7.5-CHP]
signal in IR, FA and ICGA imaging: no significant signal was detected
